Results published in patent publication US9193719B2, “1,2,4-triazol-5-ones and analogs exhibiting anti-cancer and anti-proliferative activities” (Deciphera Pharmaceuticals, LLC, priority 2013, dated 2015).

What was measured:
osteoclast precursors = experiment: Osteoclast tartrate-resistant acid phosphatase assay; assay type: cell-based; settings: RANKL and M-CSF, 7-14 days, tartrate-resistant acid phosphatase activity
Description: Osteoclast Tartrate-Resistant Acid Phosphatase Assay
A serial dilution of test compound was dispensed into a 384-well black clear bottom plate (Nalge Nunc International, Rochester, N.Y.). Compound was diluted by the addition of DMEM media supplemented with 10% characterized fetal bovine serum (Invitrogen, Carlsbad, Calif.). Diluted compound was transferred to a 384-well black clear bottom plate. Two-thousand five hundred osteoclast precursors (Lonza, Walkersville, Md.) were added per well in growth media containing Receptor Activator of Nuclear Factor Kappa-beta ligand (RANKL) and M-CSF (R&D Systems, Minneapolis, Minn.). Plates were incubated for 7-14 days at 37 degrees Celsius, 5% CO2, and 95% humidity to allow differentiation of osteoclast precursors. At the end of the incubation period, 10 μL of supernatant from each well was transferred to a clear 384-well plate. Tartrate-resistant acid phosphatase activity in the supernatant samples was determined using an acid phosphatase assay kit (Sigma, St. Louis, Mo.). Absorbance was measured at 550 nm using a plate reader. Data was analyzed using Prism software (Graphpad, San Diego, Calif.) to calculate IC50 values.

M-NFS-60 cells = experiment: M-NFS-60 cell proliferation assay (resazurin); assay type: cell-based; settings: 67 h incubation
Description: M-NFS-60 cells (catalog #CRL-1838) were obtained from the American Type Culture Collection (ATCC, Manassas, Va.). Briefly, cells were grown in suspension in RPMI 1640 medium supplemented with 10% characterized fetal bovine serum (Invitrogen, Carlsbad, Calif.), 0.05 mM 2-mercaptoethanol, and 20 ng/mL mouse recombinant macrophage colony stimulating factor (M-CSF) at 37° C., 5% CO2, and 95% humidity. Cells were allowed to expand until reaching saturation at which point they were subcultured or harvested for assay use.
M-NFS-60 Cell Proliferation Assay
A serial dilution of test compound was dispensed into a 384-well black clear bottom plate (Corning, Corning, N.Y.). Two thousand five hundred cells were added per well in 50 μL complete growth medium. Plates were incubated for 67 h at 37° C., 5% CO2, and 95% humidity. At the end of the incubation period 10 μL of a 440 μM solution of resazurin (Sigma, St. Louis, Mo.) in PBS was added to each well and incubated for an additional 5 h at 37° C., 5% CO2, and 95% humidity. Plates were read on a Synergy2 reader (Biotek, Winooski, Vt.) using an excitation of 540 nm and an emission of 600 nm. IC50 values were calculated from a series of percent inhibition values determined at a range of inhibitor concentrations using software routines as implemented in the GraphPad Prism software package.

[1] = molecular target: T1, unphosphorylated c-FMS kinase (uFMS, Seq. ID no. 1) (Homo sapiens, UniProt P07333); experiment: uFMS kinase enzymatic assay (pyruvate kinase/lactate dehydrogenase coupled); assay type: biochemical; settings: ATP 500 μM, rate 3 to 4 h
T1 construct: purchased Millipore
T1 sequence (P07333 538-972): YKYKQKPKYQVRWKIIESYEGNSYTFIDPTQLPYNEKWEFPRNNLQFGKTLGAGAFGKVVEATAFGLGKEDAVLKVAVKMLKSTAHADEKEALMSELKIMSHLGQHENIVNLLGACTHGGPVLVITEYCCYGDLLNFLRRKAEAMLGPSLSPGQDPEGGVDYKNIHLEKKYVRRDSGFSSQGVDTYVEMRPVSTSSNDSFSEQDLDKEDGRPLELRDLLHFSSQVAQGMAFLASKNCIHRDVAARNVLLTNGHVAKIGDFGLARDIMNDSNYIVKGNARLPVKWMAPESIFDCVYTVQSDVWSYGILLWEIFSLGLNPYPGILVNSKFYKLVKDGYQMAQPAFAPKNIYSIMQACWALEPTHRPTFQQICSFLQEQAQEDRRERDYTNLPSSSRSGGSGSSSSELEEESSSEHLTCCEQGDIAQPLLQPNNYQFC
Description: uFMS Kinase (Seq. ID No. 1) Assay
Activity of unphosphorylated c-FMS kinase (uFMS, Seq. ID no. 1) was determined by following the production of ADP from the FMS kinase reaction with ATP and poly E4Y as substrates through coupling with the pyruvate kinase/lactate dehydrogenase system (e.g., Schindler et al. Science (2000) 289: 1938-1942). In this assay, the oxidation of NADH (thus the decrease at A340 nm) was continuously monitored spectrophometrically. The reaction mixture (100 μL) contained FMS (purchased from Millipore) (10 nM), polyE4Y (1 mg/mL), MgCl2 (10 mM), pyruvate kinase (4 units), lactate dehydrogenase (0.7 units), phosphoenol pyruvate (1 mM), NADH (0.28 mM) and ATP (500 μM) in 90 mM Tris buffer containing 0.2% octyl-glucoside and 1% DMSO, pH 7.5. The inhibition reaction was started by mixing serial diluted test compound with the above reaction mixture. The absorption at 340 nm was monitored continuously for 4 hours at 30° C. on Synergy 2 plate reader. The reaction rate was calculated using the 3 to 4 h time frame. Percent inhibition was obtained by comparison of reaction rate with that of a control (i.e. in the absence of test compound). IC50 values were calculated from a series of percent inhibition values determined at a range of inhibitor concentrations using software routines as implemented in the GraphPad Prism software package.

[2] = molecular target: T2, unphosphorylated PDGFRβ kinase (uPDGFRβ, Seq. ID No. 3) (Homo sapiens, UniProt P09619); experiment: uPDGFRβ kinase enzymatic assay (pyruvate kinase/lactate dehydrogenase coupled); assay type: biochemical; settings: ATP 500 μM, rate 1.5 to 2.5 h
T2 construct: purchased DeCode
Description: Unphosphorylated PDGFRβ (uPDGFRβ) Kinase (Seq. ID No. 3) Assay
Activity of unphosphorylated PDGFRβ kinase (uPDGFRβ, Seq. ID No. 3) was determined by following the production of ADP from the kinase reaction with ATP and poly E4Y as substrates through coupling with the pyruvate kinase/lactate dehydrogenase system (e.g., Schindler et al. Science (2000) 289: 1938-1942). In this assay, the oxidation of NADH (thus the decrease at A340 nm) was continuously monitored spectrophometrically. The reaction mixture (100 μL) contained PDGFRβ (DeCode, 15.7 nM), polyE4Y (2.5 mg/mL), MgCl2 (10 mM), pyruvate kinase (4 units), lactate dehydrogenase (0.7 units), phosphoenol pyruvate (1 mM) and NADH (0.28 mM) and ATP (500 μM) in a 90 mM Tris buffer containing 0.2% octyl-glucoside and 1% DMSO, at pH 7.5. The inhibition reaction was started by mixing serial diluted test compound with the above reaction mixture. The absorption at 340 nm was monitored continuously for 4 h at 30° C. on a Polarstar Optima or Synergy 2 plate reader. The reaction rate was calculated using the 1.5 to 2.5 h time frame. Percent inhibition was obtained by comparison of reaction rate with that of a control (i.e. with no test compound). IC50 values were calculated from a series of percent inhibition values determined at a range of inhibitor concentrations using software routines as implemented in the GraphPad Prism software package.

T2 sequence (P09619 557-1106): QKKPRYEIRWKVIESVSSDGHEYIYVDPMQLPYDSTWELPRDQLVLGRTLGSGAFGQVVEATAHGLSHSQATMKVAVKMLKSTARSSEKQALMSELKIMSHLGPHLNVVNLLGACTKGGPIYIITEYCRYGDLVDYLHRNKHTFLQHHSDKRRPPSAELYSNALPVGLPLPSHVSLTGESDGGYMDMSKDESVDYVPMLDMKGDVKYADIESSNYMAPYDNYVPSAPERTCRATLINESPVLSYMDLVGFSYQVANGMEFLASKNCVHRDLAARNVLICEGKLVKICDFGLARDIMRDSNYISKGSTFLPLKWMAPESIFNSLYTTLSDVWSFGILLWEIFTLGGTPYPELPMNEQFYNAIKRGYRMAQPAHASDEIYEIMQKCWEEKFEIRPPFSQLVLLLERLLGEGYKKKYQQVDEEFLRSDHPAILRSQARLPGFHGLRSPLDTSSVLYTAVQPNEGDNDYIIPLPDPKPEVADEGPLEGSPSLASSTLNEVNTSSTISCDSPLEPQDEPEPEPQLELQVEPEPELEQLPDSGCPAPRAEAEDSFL

SMILES | IC50 (osteoclast precursors) | IC50 (M-NFS-60 cells) | IC50 [1] | IC50 [2]
Cc1nc(-n2nc(C(C)(C)C)[nH]c2=O)ccc1Oc1ccnc(NC(=O)N(C)C)c1 [Example 30, 3-(4-((6-(3-(tert-butyl)-5-oxo-4,5-dihydro-1H-1,2,4-triazol-1-yl)-2-methylpyridin-3-yl)oxy)pyridin-2-yl)-1,1-dimethylurea] | 0.01 to 0.1 µM | > 1 µM | 0.01 to 0.1 µM | > 1 µM
Cc1nc(-n2nc(C3CCCCC3)[nH]c2=O)ccc1Oc1ccnc(-c2cnn(C)c2)c1 [Example 6, 3-cyclohexyl-1-(6-methyl-5-((2-(1-methyl-1H-pyrazol-4-yl)pyridin-4-yl)oxy)pyridin-2-yl)-1H-1,2,4-triazol-5(4H)-one] | 0.01 to 0.1 µM | ≤ 0.01 µM | ≤ 0.01 µM | 0.1 to 1 µM
Cc1nc(-n2nc(Cc3ccccc3)[nH]c2=O)ccc1Oc1ccnc(-c2cnn(C)c2)c1 [Example 2, 3-benzyl-1-(6-methyl-5-((2-(1-methyl-1H-pyrazol-4-yl)pyridin-4-yl)oxy)pyridin-2-yl)-1H-1,2,4-triazol-5(4H)-one] | 0.01 to 0.1 µM | 0.01 to 0.1 µM | ≤ 0.01 µM | 0.1 to 1 µM
Cn1cc(-c2cc(Oc3ccc(-n4nc(Cc5ccc(F)cc5)[nH]c4=O)nc3)ccn2)cn1 [Example 3, 3-(4-fluorobenzyl)-1-(5-((2-(1-methyl-1H-pyrazol-4-yl)pyridin-4-yl)oxy)pyridin-2-yl)-1H-1,2,4-triazol-5(4H)-one] | 0.01 to 0.1 µM | 0.01 to 0.1 µM | ≤ 0.01 µM | 0.01 to 0.1 µM
CCC(C)(C)c1nn(-c2ccc(Oc3ccnc(-c4cnn(C)c4)c3)c(C)n2)c(=O)[nH]1 [Example 25, 1-(6-methyl-5-((2-(1-methyl-1H-pyrazol-4-yl)pyridin-4-yl)oxy)pyridin-2-yl)-3-(tert-pentyl)-1H-1,2,4-triazol-5(4H)-one] | 0.01 to 0.1 µM | 0.01 to 0.1 µM | ≤ 0.01 µM | > 1 µM
Cc1nc(-n2nc(C(C)C)[nH]c2=O)ccc1Oc1ccnc(-c2cnn(C)c2)c1 [Example 5, 3-isopropyl-1-(6-methyl-5-((2-(1-methyl-1H-pyrazol-4-yl)pyridin-4-yl)oxy)pyridin-2-yl)-1H-1,2,4-triazol-5(4H)-one] | 0.01 to 0.1 µM | 0.01 to 0.1 µM | 0.01 to 0.1 µM | > 1 µM
Cn1cc(-c2cc(Oc3ccc(-n4nc(C(C)(C)C)[nH]c4=O)nc3)ccn2)cn1 [Example 4, 3-(tert-butyl)-1-(5-((2-(1-methyl-1H-pyrazol-4-yl)pyridin-4-yl)oxy)pyridin-2-yl)-1H-1,2,4-triazol-5(4H)-one] | 0.01 to 0.1 µM | 0.01 to 0.1 µM | ≤ 0.01 µM | > 1 µM
Cc1nc(-n2nc(C(C)(C)C)[nH]c2=O)ccc1Oc1ccnc(-c2cnn(C)c2)c1 [Example 7, 3-(tert-butyl)-1-(6-methyl-5-((2-(1-methyl-1H-pyrazol-4-yl)pyridin-4-yl)oxy)pyridin-2-yl)-1H-1,2,4-triazol-5(4H)-one] | 0.01 to 0.1 µM | 0.01 to 0.1 µM | ≤ 0.01 µM | > 1 µM
Cc1cc(-n2nc(C(C)(C)C)[nH]c2=O)nc(C)c1Oc1ccnc(-c2cnn(C)c2)c1 [Example 33, 3-(tert-butyl)-1-(4,6-dimethyl-5-((2-(1-methyl-1H-pyrazol-4-yl)pyridin-4-yl)oxy)pyridin-2-yl)-1H-1,2,4-triazol-5(4H)-one] | 0.1 to 1 µM | 0.1 to 1 µM | 0.01 to 0.1 µM | 0.1 to 1 µM
Cc1nc(-n2nc(Cc3ccc(F)cc3)[nH]c2=O)ccc1Oc1ccnc(-c2cnn(C)c2)c1 [Example 1, 3-(4-fluorobenzyl)-1-(6-methyl-5-((2-(1-methyl-1H-pyrazol-4-yl)pyridin-4-yl)oxy)pyridin-2-yl)-1H-1,2,4-triazol-5(4H)-one] | 0.01 to 0.1 µM | 0.01 to 0.1 µM | ≤ 0.01 µM | 0.1 to 1 µM
